Read-outs that look alike come from different tables or passages of the source.
Tests used:
[1] = system: M. bovis bovinus 8; assay type: in vivo, mice
[2] = system: M. bovis bovinus 8; assay type: in vivo, mice; remark: listed apart in the source
[3] = system: M. bovis bovinus 8; assay type: in vivo, mice; settings: combination of the new treatment with the TB drug
[4] = system: M. bovis bovinus 8; assay type: in vivo, rabbits; settings: for Body weight ITE (%): 15 mg/kg
[5] = in vivo; cited from earlier work
[6] = system: M. bovis bovinus 8; assay type: cell-based
[7] = system: M. tuberculosis H37Rv; experiment: Double serial dilution, growth of drug-sensitive test strain; assay type: cell-based; parameters: key to Degree of mycobacterial growth: primary inhibition of mycobacterial growth (++)
[8] = system: M. tuberculosis Erdman; experiment: as above; assay type: cell-based; parameters: key to Degree of mycobacterial growth: primary inhibition of mycobacterial growth (++); settings: for Degree of mycobacterial growth: 10^6 cells/ml
[9] = system: M. tuberculosis “Academia”; experiment: as above; assay type: cell-based; parameters: key to Degree of mycobacterial growth: primary inhibition of mycobacterial growth (++)
[10] = system: gram-positive and gram-negative microorganisms; assay type: cell-based
[11] = system: M. bovis bovinus 8; parameters: species or system mice; settings: mouse, in vivo
[12] = General toxicity; assay type: in vivo
[13] = Embryo toxicity, teratogenicity and reproductive function; assay type: in vivo, animals
[14] = Allergenic, immunotoxic and mutagenic properties
[15] = Stability during storage; assay type: physicochemical
[16] = system: Mycobacteria tuberculosis; experiment: Tuberculostatic activity compared with the prototype drug; settings: in comparison with the prototype drug
[17] = TB drug combined with the new treatment (20 mg/kg, per os) vs TB drug monotherapy, mice, 42 days
[18] = TB drug combined with the new treatment (20 mg/kg, per os) vs TB drug monotherapy, mice, 42 days of treatment
[19] = new treatment in combination with the TB drug, compared to monotherapy with the new treatment alone
[20] = rabbits, 15 mg/kg per os, vs infection control
[21] = 3.125 μg/ml in medium, 10^6 cells/ml

Compound: NCC[C@H](O)C(=O)N[C@@H]1C[C@H](N)[C@@H](O[C@H]2O[C@H](CN)[C@@H](O)[C@H](O)[C@H]2O)[C@H](O)[C@H]1O[C@H]1O[C@H](CO)[C@@H](O)[C@H](N)[C@H]1O [Amycacin, amycacin]
- decrease in the coefficient of liver weight ([1]; mouse, in vivo): 34.6%
- decrease in the index of lung damage ([1]; mouse, in vivo): 1.8%
- effect of combination on therapeutic effectiveness, in words ([1]; mouse, in vivo): increased the therapeutic effectiveness
- increase in therapeutic effectiveness (average of indices of organ damage) ([1]; mouse, in vivo): 11.34%
- Scored sum of area: Breathing lung tissue ([2]; mouse, in vivo): 17.7
- Scored sum of area: Dense lymphocytic infiltrate ([2]; mouse, in vivo): 3.12
- Scored sum of area: Desquamative pneumonia ([2]; mouse, in vivo): 2.94
- Scored sum of area: Polymorpho cellular infiltrate ([2]; mouse, in vivo): 0
- Scored sum of area: Total lung tissue ([2]; mouse, in vivo): 23.76
- improvement of the indices of lung damage (morphological) ([2]; mouse, in vivo): 2.56%

Compound: CC[C@@H](CO)NCCN[C@@H](CC)CO [Ethambutol, ethambutol]
- decrease in CFU levels in the spleen [1, 17]: 33.3%
- decrease in coefficient of spleen weight [1, 17]: 22.1%
- decrease in the coefficient of liver weight [1, 17]: 8.9%
- increase in the index of lung damage [1, 17]: 4.0%
- increase in the index of lung weight [1, 17]: 3.1%
- increase in therapeutic effectiveness (average of indices of organ damage) [1, 18]: 11.44%
- effect of combination on therapeutic effectiveness, in words [1, 19]: increased the therapeutic effectiveness
- Scored sum of area: Breathing lung tissue ([2]; mice, 42 days of treatment): 9.78
- Scored sum of area: Dense lymphocytic infiltrate ([2]; mice, 42 days of treatment): 6.8
- Scored sum of area: Desquamative pneumonia ([2]; mice, 42 days of treatment): 6.93
- Scored sum of area: Polymorpho cellular infiltrate ([2]; mice, 42 days of treatment): 0.27
- Scored sum of area: Total lung tissue ([2]; mice, 42 days of treatment): 23.78
- therapeutic effectiveness of the combination, in words [3]: weak therapeutic effectiveness

Compound: NNC(=O)c1ccncc1 [Isoniazid, isonicotinic acid hydrazide]
- Body weight % of initial ([4]; rabbits, 15 mg/kg per os): −6.99%
- Lethality % of initial number ([4]; rabbits, 15 mg/kg per os): 0%
- Lethality ITE (%) [4, 20]: +100.0%
- Body weight ITE (%) [4, 20]: +74.67%
- Body weight ITE (%) ([4]; rabbits, 15 mg/kg per os, vs infection control, listed as isoniazid): 74.67%
- decrease in CFU levels in the spleen [1, 17]: 25%
- decrease in the coefficient of liver weight [1, 17]: 3.6%
- increase in therapeutic effectiveness (average of indices of organ damage) [1, 18]: 13.9%
- effect of combination on therapeutic effectiveness, in words [1, 19]: increased the therapeutic effectiveness
- Scored sum of area: Breathing lung tissue ([2]; mice, 42 days of treatment): 17.5
- Scored sum of area: Dense lymphocytic infiltrate ([2]; mice, 42 days of treatment): 1.59
- Scored sum of area: Desquamative pneumonia ([2]; mice, 42 days of treatment): 3.52
- Scored sum of area: Polymorpho cellular infiltrate ([2]; mice, 42 days of treatment): 0.86
- Scored sum of area: Total lung tissue ([2]; mice, 42 days of treatment): 23.47
- LD50 [5]: 150 mg/kg

Compound: CC1COc2c(N3CCN(C)CC3)c(F)cc3c(=O)c(C(=O)O)cn1c23 (centres unmarked) [Ofloxacin]
- decrease in indices (of therapeutic effectiveness), range over indices [1, 17]: 4.65% to 11.9
- increase in the index of lung damage [1, 17]: 2.6%
- decrease in therapeutic effectiveness [1, 18]: 6.2%
- Scored sum of area: Breathing lung tissue ([2]; mice, 42 days of treatment): 7.32
- Scored sum of area: Dense lymphocytic infiltrate ([2]; mice, 42 days of treatment): 6.32
- Scored sum of area: Desquamative pneumonia ([2]; mice, 42 days of treatment): 10.49
- Scored sum of area: Polymorpho cellular infiltrate ([2]; mice, 42 days of treatment): 0.04
- Scored sum of area: Total lung tissue ([2]; mice, 42 days of treatment): 24.17

Compound: CO[C@H]1/C=C/O[C@@]2(C)Oc3c(C)c(O)c4c(c3C2=O)C2=NC3(CCN(CC(C)C)CC3)NC2=C(NC(=O)/C(C)=C\C=C\[C@H](C)[C@H](O)[C@@H](C)[C@@H](O)[C@@H](C)[C@H](OC(C)=O)[C@@H]1C)C4=O [Rifabutin, rifabutin]
- decrease in coefficient of lung weight [1, 17]: 12.4%
- decrease in coefficient of spleen weight [1, 17]: 20.6%
- increase in the coefficient of liver weight [1, 17]: 0.4%
- increase in the index of lung damage [1, 17]: 7.4%
- increase in therapeutic effectiveness (average of indices of organ damage) [1, 18]: 7.68%
- effect of combination on therapeutic effectiveness, in words [1, 19]: increased the therapeutic effectiveness
- Scored sum of area: Breathing lung tissue ([2]; mice, 42 days of treatment): 23.27
- Scored sum of area: Dense lymphocytic infiltrate ([2]; mice, 42 days of treatment): 0.53
- Scored sum of area: Desquamative pneumonia ([2]; mice, 42 days of treatment): 0.16
- Scored sum of area: Polymorpho cellular infiltrate ([2]; mice, 42 days of treatment): 0
- Scored sum of area: Total lung tissue ([2]; mice, 42 days of treatment): 23.96

Compound: CO[C@H]1/C=C/O[C@@]2(C)Oc3c(C)c(O)c4c(O)c(c(/C=N/N5CCN(C)CC5)c(O)c4c3C2=O)NC(=O)/C(C)=C\C=C\[C@H](C)[C@H](O)[C@@H](C)[C@@H](O)[C@@H](C)[C@H](OC(C)=O)[C@@H]1C [Rifampicin, rifampicin]
- decrease in coefficient of lung weight [1, 17]: 18.2%
- decrease in coefficient of spleen weight [1, 17]: 34.6%
- decrease in the coefficient of liver weight [1, 17]: 1.6%
- increase in CFU levels [1, 17]: 6.19%
- increase in therapeutic effectiveness (average of indices of organ damage) [1, 18]: 9.66%
- Scored sum of area: Breathing lung tissue ([2]; mice, 42 days of treatment): 19.65
- Scored sum of area: Desquamative pneumonia ([2]; mice, 42 days of treatment): 1.94
- Scored sum of area: Polymorpho cellular infiltrate ([2]; mice, 42 days of treatment): 0
- Scored sum of area: Total lung tissue ([2]; mice, 42 days of treatment): 23.96

Compound: NC(=S)NN=Cc1ccncc1.[O-][Cl+3]([O-])([O-])O [new treatment]
- complete inhibition (MIC) [6]: 1.56 µg/mL
- concentration of primary inhibition of mycobacterial growth (++) [6]: 0.19 µg/mL
- Degree of mycobacterial growth [7, 21]: ++
- MIC ([7]; M. tuberculosis H37RV): 6.25 µg/mL
- Degree of mycobacterial growth ([8]; 0.19 μg/ml in medium): ++
- Degree of mycobacterial growth ([8]; 0.39 μg/ml in medium): ++
- Degree of mycobacterial growth ([8]; 0.78 μg/ml in medium): ++
- MIC ([8]; M. tuberculosis Erdman): 3.125 µg/mL
- Degree of mycobacterial growth [9, 21]: ++
- MIC ([9]; M. tuberculosis “Academia”): 6.25 µg/mL
- effect on the growth of gram-positive and gram-negative microorganisms [10]: did not affect the growth
- Body weight % of initial ([11]; 10 mg/kg): 81.9%
- Lethality % ([11]; 10 mg/kg): 62.5%
- Body weight % of initial ([11]; 20 mg/kg): 94.5%
- Lethality % ([11]; 20 mg/kg): 25.0%
- Body weight % of initial ([11]; 30 mg/kg): 92.6%
- Lethality % ([11]; 30 mg/kg): 2.4%
- Body weight % of initial ([4]; rabbit, in vivo, 20 mg/kg): −7.13%
- Lethality % of initial number ([4]; rabbit, in vivo, 20 mg/kg): 0%
- Lethality ITE (%) ([4]; rabbit, in vivo, 20 mg/kg): +100.0%
- toxicity relative to the prototype drug (lower) ([12]; in comparison with the prototype drug): 2.4 times
- damage to vital organs and systems ([12]; in vivo): neither a significant structural and functional damage to vital organs and systems
- toxicity, in words ([12]; in vivo): low toxic agent
- dose with teratogenic effect (non life-threatening skeletal malformations, delay in ossification, edema, subcutaneous hemorrhage) ([13]; administered during organogenesis, five times the therapeutic dose): 100 mg/kg
- effect on the reproductive function and offspring development in animals ([13]; continued administration): no effect
- alterations in placenta development and sex formation ([13]; in vivo): no alterations
- embryo toxicity ([13]; mainly if administered during organogenesis): moderate embryo toxicity
- allergenic properties [14]: no
- immunotoxic properties [14]: no
- mutagenic properties [14]: no
- time for which appearance, physical characteristics and biological properties are stable [15]: 3 years
- tuberculostatic activity relative to the prototype drug (higher) [16]: 200 times
